{"source": "patent US20070270399A1", "about": "“New compounds 302” (priority 2006, published 2007)", "key": {"[1]": {"target": "hERG-encoded potassium channel (Homo sapiens, UniProt Q12809)", "sequence (Q12809 whole entry)": "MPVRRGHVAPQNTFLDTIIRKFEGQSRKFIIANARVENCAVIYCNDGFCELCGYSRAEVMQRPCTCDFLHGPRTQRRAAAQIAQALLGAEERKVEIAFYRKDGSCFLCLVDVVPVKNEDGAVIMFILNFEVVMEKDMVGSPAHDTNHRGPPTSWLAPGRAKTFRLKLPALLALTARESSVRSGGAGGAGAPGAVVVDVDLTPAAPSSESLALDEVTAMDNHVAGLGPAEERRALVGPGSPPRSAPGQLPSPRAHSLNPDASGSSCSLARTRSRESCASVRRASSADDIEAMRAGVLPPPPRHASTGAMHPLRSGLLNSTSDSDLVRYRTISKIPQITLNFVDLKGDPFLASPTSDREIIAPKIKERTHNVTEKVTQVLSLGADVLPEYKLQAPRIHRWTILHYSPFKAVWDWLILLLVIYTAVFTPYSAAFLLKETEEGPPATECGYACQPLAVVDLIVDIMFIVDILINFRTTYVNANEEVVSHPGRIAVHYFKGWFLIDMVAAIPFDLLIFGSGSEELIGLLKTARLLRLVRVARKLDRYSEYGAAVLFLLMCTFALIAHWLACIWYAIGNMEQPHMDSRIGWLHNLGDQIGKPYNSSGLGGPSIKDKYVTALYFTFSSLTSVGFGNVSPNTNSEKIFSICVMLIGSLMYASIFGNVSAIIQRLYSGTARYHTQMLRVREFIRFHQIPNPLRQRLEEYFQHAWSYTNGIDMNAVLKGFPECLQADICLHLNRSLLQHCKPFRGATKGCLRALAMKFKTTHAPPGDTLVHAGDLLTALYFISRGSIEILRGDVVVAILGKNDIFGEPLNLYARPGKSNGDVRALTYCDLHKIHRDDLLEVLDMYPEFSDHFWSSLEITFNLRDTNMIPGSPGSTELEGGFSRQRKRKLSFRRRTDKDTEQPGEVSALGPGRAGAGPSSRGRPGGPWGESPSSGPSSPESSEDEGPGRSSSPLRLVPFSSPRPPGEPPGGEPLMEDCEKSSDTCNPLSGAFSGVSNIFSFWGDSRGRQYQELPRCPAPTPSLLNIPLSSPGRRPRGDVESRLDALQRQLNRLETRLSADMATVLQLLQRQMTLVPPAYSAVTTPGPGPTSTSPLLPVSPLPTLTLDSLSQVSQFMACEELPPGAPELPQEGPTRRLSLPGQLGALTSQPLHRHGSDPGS", "test": "Activity against hERG (planar-array-based voltage clamp)", "assay_type": "cell-based", "procedure": "The activity of compounds according to formula I against the hERG-encoded potassium channel can be determined according to Kiss L, et al. Assay Drug Dev Technol. 1 (2003), 127-35: “High throughput ion-channel pharmacology: planar-array-based voltage clamp”.\nThe IC50 values tested as described above were generally greater than 8 μM."}, "human NK1 receptor": {"target": "T1, human NK1 receptor (Homo sapiens, UniProt P25103)", "T1 construct": "expressed in transfected cells; host or cells: CHO cells (AstraZeneca R&D, Wilmington USA), pRcCMV vector", "T1 sequence (P25103 whole entry)": "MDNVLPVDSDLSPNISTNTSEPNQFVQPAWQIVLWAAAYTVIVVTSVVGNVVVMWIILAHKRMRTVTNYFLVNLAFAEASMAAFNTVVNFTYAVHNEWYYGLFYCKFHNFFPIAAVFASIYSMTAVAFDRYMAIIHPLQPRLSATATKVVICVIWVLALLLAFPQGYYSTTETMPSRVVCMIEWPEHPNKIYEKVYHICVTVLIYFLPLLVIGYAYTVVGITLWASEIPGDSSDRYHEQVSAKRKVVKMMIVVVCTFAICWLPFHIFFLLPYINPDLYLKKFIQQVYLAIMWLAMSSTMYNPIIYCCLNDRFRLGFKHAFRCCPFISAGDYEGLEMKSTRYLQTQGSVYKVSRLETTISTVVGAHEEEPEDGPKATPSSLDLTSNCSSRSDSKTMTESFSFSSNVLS", "test": "FLIPR assay, inhibition of human NK1 receptor activation (intracellular Ca2+)", "assay_type": "cell-based", "conditions": "CHO cells with human NK1 receptor, Substance P agonist at approx. EC60; pKB converted from IC50", "procedure": "(§1) Chinese Hamster Ovary (CHO) K1 cells (obtained from ATCC) were stably transfected with the human NK2 receptor (hNK2R cDNA in pRc/CMV, Invitrogen) or the human NK3 receptor (hNK3R in pcDNA 3.1/Hygro (+)/IRES/CD8, Invitrogen vector modified at AstraZeneca EST-Bio UK, Alderley Park). The cells were transfected with the cationic lipid reagent LIPOFECTAMINE™ (Invitrogen) and selection was performed with Geneticin (G418, Invitrogen) at 1 mg/ml for the hNK2R transfected cells and with Hygromycin (Invitrogen) at 500 μg/ml for the hNK3R transfected cells. Single cell clones were collected by aid of Fluorescence Activated Cell Sorter (FACS), tested for functionality in a FLIPR assay (see below), expanded in culture and cryopreserved for future use. CHO cells stably transfected with human NK1 receptors originates from AstraZeneca R&D, Wilmington USA. Human NK1 receptor cDNA (obtained from RNA-PCR from lung tissue) was subcloned into pRcCMV (Invitrogen). Transfection was performed by Calcium Phosphate and selection with 1 mg/ml G418. […]\n(§2) The activity of a compound of the invention to inhibit NK1/NK2/NK3 receptor activation measured as NK1/NK2/NK3 receptor mediated increase in intracellular Ca^2+ was assessed by the following procedure: […]"}, "CYP3A4": {"target": "CYP3A4 (Homo sapiens, UniProt P08684)", "sequence (P08684 whole entry)": "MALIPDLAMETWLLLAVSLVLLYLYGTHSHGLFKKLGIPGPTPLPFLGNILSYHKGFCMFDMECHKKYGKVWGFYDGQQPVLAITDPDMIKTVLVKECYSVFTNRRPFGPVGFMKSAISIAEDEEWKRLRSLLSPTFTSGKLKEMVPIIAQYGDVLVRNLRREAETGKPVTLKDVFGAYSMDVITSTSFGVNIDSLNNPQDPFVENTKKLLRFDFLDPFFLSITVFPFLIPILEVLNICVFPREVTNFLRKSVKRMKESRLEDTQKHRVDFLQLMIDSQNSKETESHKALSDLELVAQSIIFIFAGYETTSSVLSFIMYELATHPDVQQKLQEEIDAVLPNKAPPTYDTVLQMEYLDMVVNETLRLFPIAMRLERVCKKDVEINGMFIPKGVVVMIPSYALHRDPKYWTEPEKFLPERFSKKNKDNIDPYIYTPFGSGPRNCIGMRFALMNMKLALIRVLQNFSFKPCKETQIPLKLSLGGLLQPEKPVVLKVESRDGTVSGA", "test": "CYP3A4 inhibition according to Bapiro et al", "assay_type": "in vitro ADME", "procedure": "The IC50 values tested according to Bapiro et al; Drug Metab. Dispos. 29, 30-35 (2001) were generally greater than 50 μM."}, "human NK3 receptor": {"target": "T2, human NK3 receptor (Homo sapiens, UniProt P29371)", "T2 construct": "expressed in transfected cells; host or cells: CHO K1 cells (ATCC), pcDNA 3.1/Hygro (+)/IRES/CD8 vector", "T2 sequence (P29371 1-465)": "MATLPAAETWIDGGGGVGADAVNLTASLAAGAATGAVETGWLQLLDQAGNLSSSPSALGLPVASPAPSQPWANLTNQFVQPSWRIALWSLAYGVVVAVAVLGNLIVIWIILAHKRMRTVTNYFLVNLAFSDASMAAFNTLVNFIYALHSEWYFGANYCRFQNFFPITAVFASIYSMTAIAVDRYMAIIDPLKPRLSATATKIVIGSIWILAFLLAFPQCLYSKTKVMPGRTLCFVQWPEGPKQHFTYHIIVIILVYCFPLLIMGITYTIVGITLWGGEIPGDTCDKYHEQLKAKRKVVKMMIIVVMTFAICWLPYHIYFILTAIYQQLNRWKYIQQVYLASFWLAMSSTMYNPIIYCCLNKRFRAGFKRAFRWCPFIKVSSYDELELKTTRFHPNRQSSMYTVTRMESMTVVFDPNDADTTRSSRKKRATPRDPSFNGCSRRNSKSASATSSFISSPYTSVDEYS", "test": "FLIPR assay, inhibition of human NK3 receptor activation (intracellular Ca2+)", "assay_type": "cell-based", "conditions": "CHO cells with human NK3 receptor, Pro-7-NKB agonist at approx. EC60; pKB converted from IC50", "procedure": "as §1, §2"}, "[2]": {"test": "Metabolic stability in liver microsomes (intrinsic clearance)", "assay_type": "in vitro ADME", "conditions": "human, pH 7.4, 37° C., read-out: CLint (HLM)", "procedure": "The metabolic stability of compounds according to formula I can be determined as described below: […]\nThe rate of biotransformation can be measured as either metabolite(s) formation or the rate of disappearance of the parent compound. The experimental design involves incubation of low concentrations of substrate (usually 1.0 μM) with liver microsomes (usually 0.5 mg/ml) and taking out aliquotes at varying time points (usually 0, 5, 10, 15, 20, 30, 40 min.). The test compound is usually dissolved in DMSO. The DMSO concentration in the incubation mixture is usually 0.1% or less since more solvent can drastically reduce the activities of some CYP450s. Incubations are done in 100 mM potassium phosphate buffer, pH 7.4 and at 37° C. Acetonitrile or methanol is used to stop the reaction. The parent compound is analysed by HPLC-MS. From the calculated half-life, t1/2, the intrinsic clearance, Clint, is estimated by taking microsomal protein concentration and liver weight into account."}, "human NK2 receptor": {"target": "T3, human NK2 receptor (Homo sapiens, UniProt P21452)", "T3 construct": "expressed in transfected cells; host or cells: CHO K1 cells (ATCC), pRc/CMV vector", "T3 sequence (P21452 1-398)": "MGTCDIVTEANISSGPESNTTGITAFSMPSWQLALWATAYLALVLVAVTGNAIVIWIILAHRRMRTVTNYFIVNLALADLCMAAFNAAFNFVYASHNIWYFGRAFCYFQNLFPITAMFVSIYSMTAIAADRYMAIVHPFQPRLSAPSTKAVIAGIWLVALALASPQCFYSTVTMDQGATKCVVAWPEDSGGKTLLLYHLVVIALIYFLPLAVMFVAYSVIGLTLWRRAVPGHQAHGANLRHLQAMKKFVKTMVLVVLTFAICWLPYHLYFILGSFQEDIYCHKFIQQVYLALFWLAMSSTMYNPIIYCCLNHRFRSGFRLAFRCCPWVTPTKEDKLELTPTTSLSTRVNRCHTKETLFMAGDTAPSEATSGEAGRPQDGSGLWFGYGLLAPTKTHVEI", "test": "FLIPR assay, inhibition of human NK2 receptor activation (intracellular Ca2+)", "assay_type": "cell-based", "conditions": "CHO cells with human NK2 receptor, NKA agonist at approx. EC60; pKB converted from IC50", "procedure": "as §1, §2"}}, "data": [{"smiles": "CN(C[C@@H](CCN1CC(N2CCOCC2)C1)c1ccc(F)cc1)C(=O)c1cc(Cl)cc(C(F)(F)F)c1", "note": "[Ex1, 3-Chloro-N-[(2S)-2-(4-fluorophenyl)-4-(3-morpholin-4-ylazetidin-1-yl)butyl]-N-methyl-5-(trifluoromethyl)benzamide]", "values": [{"measurement": "IC50", "setting": "[1]", "value": 8.5, "unit": "µM"}, {"measurement": "Kb", "setting": "human NK1 receptor", "value": 25.1, "unit": "nM"}, {"measurement": "IC50", "setting": "CYP3A4", "value": "> 50", "unit": "µM"}, {"measurement": "Kb", "setting": "human NK3 receptor", "value": 126, "unit": "nM"}, {"measurement": "microsomal CLint at 1 μM", "setting": "[2]", "value": 39, "unit": "µL/min/mg"}, {"measurement": "Kb", "setting": "human NK2 receptor", "value": 50.1, "unit": "nM"}]}]}
